Laboratory results as given in patent US20260335456A1, “ANTIBODY-DRUG CONJUGATE HAVING CAMPTOTHECIN-BASED DRUG LINKED TO ANTIBODY HAVING LOW ANTIGEN-BINDING AFFINITY THROUGH LINKER” (PINOTBIO, INC., priority 2022, published 2026).

Assays:
patients [1] = settings: domestic clinical studies; cited from earlier work
[2] = test system: wide range of cancer cell lines; settings: Lee et al.; cited from earlier work
[3] = Kim et al.; doses 10 times higher than the clinically applicable dose; cited from earlier work
ABCG2 = target: T1, ABCG2 (Homo sapiens, UniProt Q9UNQ0); assay: Sensitivity to ABCG2 transporter; format: cell-based
T1 sequence (Q9UNQ0 1-655): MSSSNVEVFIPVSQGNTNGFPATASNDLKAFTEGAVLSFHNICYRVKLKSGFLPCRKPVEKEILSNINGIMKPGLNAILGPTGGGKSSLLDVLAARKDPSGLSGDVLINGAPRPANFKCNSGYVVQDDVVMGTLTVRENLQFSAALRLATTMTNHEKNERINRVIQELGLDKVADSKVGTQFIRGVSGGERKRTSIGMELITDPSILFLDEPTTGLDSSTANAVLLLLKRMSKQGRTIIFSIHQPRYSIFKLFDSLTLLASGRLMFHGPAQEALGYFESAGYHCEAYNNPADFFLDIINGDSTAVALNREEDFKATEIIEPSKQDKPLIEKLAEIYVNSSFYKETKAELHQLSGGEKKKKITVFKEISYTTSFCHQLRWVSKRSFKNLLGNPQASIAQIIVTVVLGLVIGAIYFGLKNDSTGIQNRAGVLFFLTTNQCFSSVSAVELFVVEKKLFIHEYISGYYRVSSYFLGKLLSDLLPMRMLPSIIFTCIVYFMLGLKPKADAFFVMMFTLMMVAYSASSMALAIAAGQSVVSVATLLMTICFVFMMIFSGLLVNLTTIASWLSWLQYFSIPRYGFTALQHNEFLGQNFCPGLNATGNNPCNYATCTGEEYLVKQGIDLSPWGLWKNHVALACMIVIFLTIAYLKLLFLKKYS

several cell lines = settings: cited from earlier work
relapsed glioblastoma = settings: cited from earlier work
EGFR [4] = settings: cited from earlier work
patients [5] = settings: phase 1 studies; cited from earlier work
[6] = test system: normal skin and kidney cells; settings: compared with cetuximab; cited from earlier work
patients [7] = settings: cited from earlier work
Trop2 = target: T2, Trop2 (Homo sapiens, UniProt P09758); assay: PBX-001 in vitro and in vivo efficacy versus Trodelvy; settings: FIGS. 11 to 13
T2 sequence (P09758 27-323): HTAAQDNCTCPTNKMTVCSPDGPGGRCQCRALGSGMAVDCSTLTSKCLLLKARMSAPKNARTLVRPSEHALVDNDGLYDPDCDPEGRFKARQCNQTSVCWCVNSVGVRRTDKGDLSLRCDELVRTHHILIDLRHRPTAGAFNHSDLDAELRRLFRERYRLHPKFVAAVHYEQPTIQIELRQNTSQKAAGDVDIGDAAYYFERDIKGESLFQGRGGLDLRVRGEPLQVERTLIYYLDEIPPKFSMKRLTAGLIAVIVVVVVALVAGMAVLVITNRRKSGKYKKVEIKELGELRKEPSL

FaDu Xenograft model = assay: PBX-001 in FaDu Xenograft model; format: in vivo; settings: DAR 8, FIGS. 12 and 13
[8] = test system: cells with an ABCG2 efflux pump; assay: ABCG2 efflux pump resistance, PBX-001 versus Trodelvy; format: cell-based
non-human primate = assay: PBX-001 non-human primate toxicity study; format: in vivo
liver = settings: versus parent hRS7 IgG; U.S. Pat. No. 9,629,926 B; cited from earlier work
EGFR [9] = settings: cited from earlier work; remark: listed apart in the source

## CC[C@@]1(O)C(=O)OCc2c1cc1n(c2=O)Cc2c-1nc1ccccc1c2CCNC(C)C [CKD-602]
Patients [1]
  side effects in clinical studies: only reversible and controllable side effects such as neutropenia and leukopenia
[2]
  anticancer effects versus camptothecin and topotecan: superior anticancer effects compared to camptothecin and topotecan
[3]
  adverse drug reactions: no adverse drug reactions other than increased gastric secretion

## CCc1c2c(nc3ccc(O)cc13)-c1cc3c(c(=O)n1C2)COC(=O)[C@]3(O)CC [SN-38]
ABCG2
  sensitivity to ABCG2: show resistance in the way that the drug is released out of the cell due to overexpression of the ABCG2 Transporter
Several cell lines
  IC50: nanomolar range

## ABT-414: ADC targeting EGFR variant III
Relapsed glioblastoma
  monotherapy efficacy: promising monotherapy efficacy

## ABX-EGF: fully humanized IgG2 monoclonal antibody to EGFR
EGFR [4]
  affinity for EGFR versus cetuximab: higher affinity for EGFR than cetuximab
Patients [5]
  most common toxicity: skin toxicity

## Nimotuzumab: humanized IgG1 EGFR-targeting antibody
[6]
  binding to normal skin and kidney cells: much less binding than cetuximab
Patients [7]; humans
  side effects severity: only mild to moderate in severity
Patients [7]; patients
  incidence of severe acneiform rash and gastrointestinal mucosal toxicity: much lower incidence

## PBX-001: ADC of humanized anti-Trop2 antibody hRS7, FL118 and CL2A linker system
Trop2
  in vitro and in vivo efficacy versus Trodelvy: better efficacy than Trodelvy
FaDu Xenograft model
  anticancer efficacy and weight loss: excellent anticancer efficacy without weight loss
[8]
  resistance through ABCG2 efflux pump: not affected
non-human primate
  safety: excellent safety

## hRS7-CL2A-SN-38: Trop-2 ADC of hRS7 with CL2A-SN-38
liver
  liver uptake: two-fold higher liver uptake

## panitumumab: antibody drug targeting EGFR
EGFR [9]
  binding affinity relative to nimotuzumab: more than 10 times
